From patent EP4711371A1 (priority 2023, dated 2024) come the findings set out here.

The term IC50 denotes the concentration that inhibits the measured activity by half.

Holding throughout (type): cell-based
Test [1] relates to T47D. As to the kind of experiment: cells. The conditions noted are these: Homo sapiens, 120 h, read-out: T47D IC50. The protocol:
(§1) Test Example 2 In vitro proliferation inhibition assay of the camptothecin derivatives (Payload) of the present invention on tumor cells 1. Instruments and Reagents
(§2) 2. Experimental Procedure • a. Plating & culture: MDA-MB-453 (purchased from: Xiehe, catalog number: 1101HUM-PUMCO00016)/T47D (Kebai, CBP60397)/HT1376 cells (purchased from: Kebai, catalog number: CBP60310) were cultured into 96-well plates by a density of 1×10^3 /2×10^3 /1×10^3 cells per100 µL, and 200 µL of PBS was added to the outermost circle (to reduce the volatilization of the culture medium), and cultured at 37°C, 5% CO2 incubator for 24 h; • b. Drug Addition & Incubation: The 96-well flat-bottom plate was retrieved. The culture medium in the wells was aspirated, and 100 µL of the ADC drug/payload (diluted in culture medium) was added to each well. The plate was then incubated at 37°C, 5% CO2 incubator for 5 days. 3. Detection and data processing • a. The 96-well plate was retrieved. The culture medium was removed, and 100 µL of detection reagent (CCK8:medium= 1:9) was added to each well. The plate was then placed in a 37°C, 5% CO2 incubator for 4 hours; • b. The optical density (OD) at 450 nm was measured using a microplate reader (model: CEY0017), and the data was recorded with Excel. • c. Graphpad Prism 9.0 was used to analyze and organize the data.

In test [2] the test system is HT1376. Put plainly: In vitro proliferation inhibition assay of camptothecin derivatives (Payload), Test Example 2. The conditions noted are these: Homo sapiens, HT-1376, 120 h, read-out: HT1376 IC50. The protocol: as §1, §2
For test [3], the system named is MDA-MB-453. The description is as above. As to conditions: Homo sapiens, MDA-MB-453, 120 h, read-out: MDA-MB-453 IC50. The protocol: as §1, §2
Setting [4] is: payload, incubated 5 days, CCK8, OD 450 nm.

Read-outs that look alike come from different tables or passages of the source.

Regarding `CC[C@@]1(O)C(=O)OCc2c1cc1n(c2=S)Cc2c-1nc1cc3c(cc1c2CNC(=O)[C@@H](C)O)OCCO3` [Compound 41], the IC50 in test [1] came out at 0.231 nM; in test [2] it was 24.1 nM; in test [3] it was 0.943 nM.

With `CC[C@@]1(O)C(=O)OCc2c1cc1n(c2=S)Cc2c-1nc1cc(F)c(C)cc1c2CNCCO` [Compound 27], the IC50 in test [1] was 0.152 nM; in test [2], 2.5 nM; in test [3], 0.17 nM.

On to `CC[C@@]1(O)C(=O)OCc2c1cc1n(c2=S)Cc2c-1nc1cc(F)c(C)cc1c2CNC(=O)[C@H](C)O` [Compound 22], for which the values for the IC50 in test [1], in test [2] and in test [3] were 0.116 nM, 5.38 nM and 0.362 nM, respectively.

As to `CC[C@@]1(O)C(=O)OCc2c1cc1n(c2=S)Cc2c-1nc1cc(F)c(C)cc1c2CNC(=O)[C@@H](O)C1CC1` [Compound 19], the IC50 in test [1] is 0.268 nM; in test [2], 9.36 nM; in test [3] it was 1.01 nM.

On to `CC[C@@]1(O)C(=O)OCc2c1cc1n(c2=S)Cc2c-1nc1cc3c(cc1c2CNC(=O)[C@H]1C[C@@H](O)C1)OCCO3` [Compound 38], for which the IC50 in test [1] was found to be 0.234 nM; in test [2], 38.4 nM; in test [3], 0.121 nM.

For the compound `CC[C@@]1(O)C(=O)OCc2c1cc1n(c2=S)Cc2c-1nc1cc3c(cc1c2CNC(=S)CO)OCCO3` [Compound 39], the figures for the IC50 in test [1], in test [2] and in test [3] were 0.047 nM, 8.69 nM and 0.482 nM, respectively.

`CC[C@@]1(O)C(=O)OCc2c1cc1n(c2=S)Cc2c-1nc1cc(F)c(F)cc1c2CN` [Compound 15]: the IC50 in test [1] worked out at 0.157 nM; in test [2], 9.76 nM; in test [3], 1.1 nM.

For the compound `[2H]C([2H])(O)C(=O)NCc1c2c(nc3cc(F)c(C)cc13)-c1cc3c(c(=S)n1C2)COC(=O)[C@]3(O)CC` [Compound 29], the figures for the IC50 in test [1], in test [2] and in test [3] were 0.014 nM, 5.98 nM and 0.183 nM, respectively.

On to `CC[C@@]1(O)C(=O)OCc2c1cc1n(c2=S)Cc2c-1nc1cc3c(cc1c2CNC(=O)[C@H](C)O)OCCO3` [Compound 40], for which the IC50 is 0.053 nM in test [1], 18.2 nM in test [2] and 0.021 nM in test [3].

Take `CC[C@@]1(O)C(=O)OCc2c1cc1n(c2=S)Cc2c-1nc1cc(F)c(OC)cc1c2CNC(=O)CO` [Compound 31]: the values for the IC50 in test [1], in test [2] and in test [3] were 0.142 nM, 19.5 nM and 0.337 nM, respectively.

Turning to `CC[C@@]1(O)C(=O)OCc2c1cc1n(c2=S)Cc2c-1nc1cc(F)c(F)cc1c2CNC(=O)[C@H]1C[C@@H](O)C1` [Example 44], the IC50 in test [1] came to 0.195 nM; in test [2], 5.05 nM; in test [3], 0.674 nM.

In the case of `CC[C@@]1(O)C(=O)OCc2c1cc1n(c2=S)Cc2c-1nc1cc(F)c(C)cc1c2CNC(=O)[C@H](O)C1CC1` [Compound 20], the IC50 in test [1] was determined as 0.245 nM; in test [2], 0.917 nM; in test [3], 8.06 nM.

For the compound `CC[C@@]1(O)C(=O)OCc2c1cc1n(c2=S)Cc2c-1nc1cc3c(cc1c2CN)OCCO3` [Compound 13], the IC50 in test [1] came to 0.059 nM; in test [2], 10.9 nM; in test [3] it was 0.797 nM.

Consider `CC[C@@]1(O)C(=O)OCc2c1cc1n(c2=S)Cc2c-1nc1cc(F)c(OC)cc1c2CN` [Compound 12], for which the IC50 in test [1] was 0.093 nM; in test [2], 1.97 nM; in test [3], 0.312 nM.

On to `CC[C@@]1(O)C(=O)OCc2c1cc1n(c2=S)Cc2c-1nc1cc(F)c(C)cc1c2CNC(=O)[C@@H](C)O` [Compound 23], for which the IC50 in test [1] amounted to 0.117 nM; in test [2], 5.94 nM; in test [3], 0.343 nM.

As to `CC[C@@]1(O)C(=O)OCc2c1cc1n(c2=S)Cc2c-1nc1cc(F)c(F)cc1c2CNC(=O)[C@H](C)O` [Example 45], the IC50 in test [1] was 2.79 nM; in test [2] it was 3.79 nM; in test [3], 4.97 nM.

In the case of `CC[C@@]1(O)C(=O)OCc2c1cc1n(c2=S)Cc2c-1nc1cc(Cl)c(C)cc1c2CNC(=O)[C@H](C)O` [Example 43], the IC50 in test [1] stood at 0.089 nM; in test [2] it was 9.94 nM; in test [3], 1.64 nM.

Turning to `CC[C@@]1(O)C(=O)OCc2c1cc1n(c2=S)Cc2c-1nc1cc(Cl)c(C)cc1c2CN` [Compound 14], the figures for the IC50 in test [1], in test [2] and in test [3] were 0.25 nM, 13.8 nM and 5.23 nM, respectively.

As for `CC[C@@]1(OC(=O)Cn2cc(F)c(=O)[nH]c2=O)C(=O)OCc2c1cc1n(c2=S)Cc2c-1nc1cc(F)c(C)cc1c2CN` [Compound 24], the IC50 in test [1] (setting [4]) came to 3.6 nM; in test [2] (setting [4]) it was 25.4 nM; in test [3] (setting [4]), 78.4 nM.

Turning to `CC[C@@]1(O)C(=O)OCc2c1cc1n(c2=S)Cc2c-1nc1cc(F)c(OC)cc1c2CNC(=O)[C@H]1C[C@@H](O)C1` [Compound 30], the IC50 in test [1] amounted to 0.391 nM; in test [2], 66.7 nM; in test [3] it was 1.01 nM.

Turning to `CC[C@@]1(O)C(=O)OCc2c1cc1n(c2=S)Cc2c-1nc1cc(F)c(OC)cc1c2CNC(=S)CO` [Compound 35], the IC50 in test [2] is 4.94 nM; in test [3], roughly 1.22 nM.

Take `CC[C@@]1(O)C(=O)OCc2c1cc1n(c2=S)Cc2c-1nc1cc(F)c(C)cc1c2[C@@H](C)N` [Compound 16]: the IC50 in test [1] amounted to 0.141 nM; in test [2] it was 3.87 nM; in test [3] it was 0.481 nM.

Regarding `CC[C@@]1(O)C(=O)OCc2c1cc1n(c2=S)Cc2c-1nc1cc(F)c(C)cc1c2CNC(=O)C1CCC(O)C1` (some centres unmarked) [Compound 28], the IC50 in test [1] came out at 0.15 nM; in test [2] it was 42.4 nM; in test [3] it was 6.17 nM.

Take `CC[C@@]1(O)C(=O)OCc2c1cc1n(c2=S)Cc2c-1nc1cc3c(cc1c2CNC(=O)OCCO)OCCO3` [Compound 37]: the IC50 in test [1] came out at 0.054 nM; in test [2], 13.5 nM; in test [3], 0.013 nM.

In the case of `CC[C@@]1(OC(=O)Cn2cc(F)c(=O)[nH]c2=O)C(=O)OCc2c1cc1n(c2=S)Cc2c-1nc1cc(F)c(C)cc1c2CNC(=O)CO` [Compound 25], the IC50 in test [1] (setting [4]) turned out to be 2.6 nM; in test [2] (setting [4]) it was 8.39 nM; in test [3] (setting [4]) it was 103 nM.

`CC[C@@]1(O)C(=O)OCc2c1cc1n(c2=S)Cc2c-1nc1cc(F)c(OC)cc1c2CNC(=O)[C@H](C)O` [Compound 32]: the IC50 in test [1] is 0.089 nM; in test [2] it was 15.3 nM; in test [3], 0.417 nM.

For the compound `CC[C@@]1(O)C(=O)OCc2c1cc1n(c2=S)Cc2c-1nc1cc(F)c(C)cc1c2CNC(=O)[C@H]1C[C@@H](O)C1` [Compound 21], the IC50 worked out at 0.108 nM in test [1], 11.6 nM in test [2] and 0.294 nM in test [3].

Consider `CC[C@@]1(O)C(=O)OCc2c1cc1n(c2=S)Cc2c-1nc1cc(F)c(C)cc1c2CNC(=S)CO` [Compound 26], for which the IC50 in test [1] is less than 0.003 nM; in test [2], 0.014 nM; in test [3], 1 nM.

`CC[C@@]1(O)C(=O)OCc2c1cc1n(c2=S)Cc2c-1nc1cc(F)c(OC)cc1c2CNC(=O)[C@@H](C)O` [Compound 34]: the IC50 in test [1] was 0.151 nM; in test [2] it was 10.1 nM; in test [3], 0.652 nM.

Regarding `CC[C@@]1(O)C(=O)OCc2c1cc1n(c2=S)Cc2c-1nc1cc(F)c(OC)cc1c2CNC(=O)OCCO` [Compound 33], the IC50 in test [1] is 0.392 nM; in test [2] it was 45.4 nM; in test [3], 0.599 nM.

Consider `CC[C@@]1(O)C(=O)OCc2c1cc1n(c2=S)Cc2c-1nc1cc3c(cc1c2CNC(=O)CO)OCCO3` [Compound 36], for which the IC50 in test [1] was 0.119 nM; in test [2] it was 10.3 nM; in test [3], 0.029 nM.

Turning to `CC[C@@]1(O)C(=O)OCc2c1cc1n(c2=S)Cc2c-1nc1cc(Cl)c(C)cc1c2CNC(=O)[C@H]1C[C@@H](O)C1` [Example 42], the IC50 in test [1] was 0.845 nM; in test [2], 40.2 nM; in test [3] it was 4.18 nM.
